What was measured:
[1] = target: T1, cGMP PDE5 (Homo sapiens, UniProt O76074); assay: In vitro PDE inhibitory activity against cGMP PDE5 (IC50); assay type: biochemical; settings: cGMP PDE5 from human corpus cavernosum tissue
T1 construct: The IC50 measurements for cGMP PDE5 were based upon data generated on human corpus cavernosum tissue; from tissue; host or cells: human corpus cavernosum
Description: (§1) The IC50 measurements for cGMP PDE5 were based upon data generated on human corpus cavernosum tissue and the IC50 measurements for rod cGMP PDE6 were based upon data generated on bovine retina tissue and wherein the selectivity ratio for cGMP PDE5 to cGMP PDE6 quoted is based upon IC50 PDE5/IC50 PDE6.

[2] = target: T2, rod cGMP PDE6 (Bos taurus, UniProt P11541+P23439); assay: In vitro PDE inhibitory activity against rod cGMP PDE6 (IC50), used for the PDE5 versus PDE6 selectivity; assay type: biochemical; settings: ratio of IC50 for cGMP PDE5 (human corpus cavernosum) and rod cGMP PDE6 (bovine retina)
T2 construct: the IC50 measurements for rod cGMP PDE6 were based upon data generated on bovine retina tissue; from tissue; host or cells: bovine retina
T2 sequence (P11541 2-856 limits assumed): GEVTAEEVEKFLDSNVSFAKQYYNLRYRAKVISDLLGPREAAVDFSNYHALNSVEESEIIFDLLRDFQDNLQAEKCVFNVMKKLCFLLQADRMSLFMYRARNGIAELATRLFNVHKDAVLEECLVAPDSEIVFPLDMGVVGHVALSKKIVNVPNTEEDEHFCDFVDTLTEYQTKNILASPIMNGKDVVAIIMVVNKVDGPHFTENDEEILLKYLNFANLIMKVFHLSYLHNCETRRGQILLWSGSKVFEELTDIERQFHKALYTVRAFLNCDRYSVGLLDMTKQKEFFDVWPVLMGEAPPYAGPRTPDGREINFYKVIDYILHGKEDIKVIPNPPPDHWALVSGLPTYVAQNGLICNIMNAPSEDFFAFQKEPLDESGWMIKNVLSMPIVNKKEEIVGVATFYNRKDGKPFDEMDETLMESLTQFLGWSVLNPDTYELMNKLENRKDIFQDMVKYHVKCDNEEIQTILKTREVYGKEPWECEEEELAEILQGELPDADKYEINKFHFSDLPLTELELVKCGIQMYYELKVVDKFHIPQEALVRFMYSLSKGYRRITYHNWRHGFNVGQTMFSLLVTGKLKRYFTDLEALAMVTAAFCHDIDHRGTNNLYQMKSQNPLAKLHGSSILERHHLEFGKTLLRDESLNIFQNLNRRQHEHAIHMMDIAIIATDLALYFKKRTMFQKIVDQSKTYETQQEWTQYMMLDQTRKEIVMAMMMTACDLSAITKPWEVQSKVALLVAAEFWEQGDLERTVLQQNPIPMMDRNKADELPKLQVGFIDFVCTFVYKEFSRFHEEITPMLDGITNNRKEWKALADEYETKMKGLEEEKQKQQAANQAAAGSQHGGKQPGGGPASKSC
T2 sequence (P23439 2-850 limits assumed): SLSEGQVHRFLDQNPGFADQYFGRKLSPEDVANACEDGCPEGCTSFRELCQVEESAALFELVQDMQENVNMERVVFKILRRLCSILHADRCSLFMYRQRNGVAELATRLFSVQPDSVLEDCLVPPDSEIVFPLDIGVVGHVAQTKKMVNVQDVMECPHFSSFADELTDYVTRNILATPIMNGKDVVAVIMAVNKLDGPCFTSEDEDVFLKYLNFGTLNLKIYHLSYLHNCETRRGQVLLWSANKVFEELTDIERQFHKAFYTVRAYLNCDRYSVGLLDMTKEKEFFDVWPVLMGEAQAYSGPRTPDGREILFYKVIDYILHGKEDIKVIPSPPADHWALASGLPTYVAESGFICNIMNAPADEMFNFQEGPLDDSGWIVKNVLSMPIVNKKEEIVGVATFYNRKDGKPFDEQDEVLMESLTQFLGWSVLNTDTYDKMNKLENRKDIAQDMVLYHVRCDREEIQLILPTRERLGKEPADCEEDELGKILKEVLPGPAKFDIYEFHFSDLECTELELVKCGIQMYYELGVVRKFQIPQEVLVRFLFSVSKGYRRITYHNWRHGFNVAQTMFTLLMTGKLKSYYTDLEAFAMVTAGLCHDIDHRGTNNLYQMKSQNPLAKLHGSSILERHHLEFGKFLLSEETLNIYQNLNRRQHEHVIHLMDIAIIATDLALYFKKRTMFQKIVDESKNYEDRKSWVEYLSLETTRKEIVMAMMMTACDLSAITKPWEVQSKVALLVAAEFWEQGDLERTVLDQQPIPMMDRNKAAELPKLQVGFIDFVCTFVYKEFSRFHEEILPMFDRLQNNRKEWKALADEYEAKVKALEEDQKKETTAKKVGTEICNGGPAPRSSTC
Description: as §1

IC50 [1] [nM]	SMILES	Selectivity (PDE 5/6) [2]
1	CCOc1ncc(S(=O)(=O)N2CCN(CC)CC2)cc1-c1nc2c(CC)n(CC(C)C)nc2c(=O)[nH]1 [Example 5]	
1.68	CCOc1ncc(S(=O)(=O)N2CCN(CC)CC2)cc1-c1nc2c(CC)n(CCOC)nc2c(=O)[nH]1 [Example 8, 1-{6-ethoxy-5-[3-ethyl-6,7-dihydro-2-(2-methoxyethyl)-7-oxo-2H-pyrazolo[4,3-d]pyrimidin-5-yl]-3-pyridylsulfonyl}-4-ethylpiperazine]	223.8
6.4	CCOc1ncc(S(=O)(=O)N2CCN(CC)CC2)cc1-c1nc2c(CC)n(C3CN(C(C)=O)C3)nc2c(=O)[nH]1 [Example 22, 2-(1-Acetylazetidin-3-yl)-5-[2-ethoxy-5-(4-ethylpiperazin-1-ylsulphonyl)pyridin-3-yl]-3-ethyl-2,6-dihydro-7H-pyrazolo[4,3-d]pyrimidin-7-one]	325.3
1.52	CCCOc1ncc(S(=O)(=O)N2CCN(CC)CC2)cc1-c1nc2c(CC)n(CCN(C)C(C)=O)nc2c(=O)[nH]1 [Example 24]	134.9
1.09	CCc1c2nc(-c3cc(S(=O)(=O)N4CCN(C)CC4)cnc3OCCOC)[nH]c(=O)c2nn1CC1CCC1 [Example 53, 2-Cyclobutylmethyl-3-ethyl-5-[2-(2-methoxyethoxy)-5-(4-methylpiperazin-1-ylsulphonyl)pyridin-3-yl]-2,6-dihydro-7H-pyrazolo[4,3-d]pyrimidin-7-one]	

SMILES	IC50 [1] [nM]	Selectivity (PDE 5/6) [2]
CCCCOc1ncc(S(=O)(=O)N2CCN(CC)CC2)cc1-c1nc2c(CC)n(CCN(C)C)nc2c(=O)[nH]1 [Example 17, 5-[2-n-Butoxy-5-(4-ethylpiperazin-1-ylsulphonyl)pryridin-3-yl]-2-dimethylaminoethyl-3-ethyl-2,6-dihydro-7H-pyrazolo[4,3-d]pyrimidin-7-one]	0.9	254.1
CCCc1c2nc(-c3cc(S(=O)(=O)N4CCN(CC)CC4)cnc3OCC(C)C)[nH]c(=O)c2nn1CCOC [Example 27, 5-[2-isoButoxy-5-(4-ethylpiperazin-1-ylsulphonyl)pyridin-3-yl]-2-(2-methoxyethyl)-3-n-propyl-2,6-dihydro-7H-prazolo[4,3-d]pyrimidin-7-one]	0.85	161
CCCCOc1ncc(S(=O)(=O)N2CCN(CC)CC2)cc1-c1nc2c(CC)n(CC(=O)N(C)C)nc2c(=O)[nH]1 [Example 60, 5-[2-n-Butoxy-5-(4-ethylpiperazin-1-ylsulphonyl)pyridin-3-yl]-2-[2-(dimethylamino)-2-oxoethyl]-3-ethyl-2,6-dihydro-7H-pyrazolo[4,3-d]pyrimidin-7-one]	0.45	343.7

— patent publication US6677335B1, “Pharmaceutically active compounds” (Pfizer Inc, priority 1999, dated 2004)
